# Test results: US4558064A, “2-Azasfiro[4.(3+N)]-3-carboxylic acid derivatives, a process for their preparation, agents containing these derivatives and their use” (Hoechst Aktiengesellschaft, priority 1982, dated 1985)
# Test system: pressor response induced by angiotensin I
# Experiment: suppression of the pressor response in the rat induced by 310 ng of angiotensin I
# Type: in vivo
# Conditions: 30 minutes after administration, 310 ng angiotensin I
# Protocol: In animal experiments, the following effects, for example, were obtained: the suppression of the pressor response in the rat induced by 310 ng of angiotensin I was measured.
# (a) i.v. administration (30 minutes after administration)
# (b) i.d. administration (30 minutes after administration)
# [1] = i.v. administration, dose 100 μg/kg
compound,measurement,setting,value
CC(NC(CCc1ccccc1)C(=O)O)C(=O)N1CC2(CCCCCC2)CC1C(=O)O (stereo not drawn),% inhibition of the pressor response induced by angiotensin I,[1],95%
CCOC(=O)C(CCc1ccccc1)NC(C)C(=O)N1CC2(CCCCC2)CC1C(=O)O (stereo not drawn),% inhibition of the pressor response induced by angiotensin I,"i.d. administration, dose 0.1 mg (so in the source)",60-70%
same,% inhibition of the pressor response induced by angiotensin I,[1],95%
CCOC(=O)C(CCc1ccccc1)NC(C)C(=O)N1CC2(CCCC2)CC1C(=O)O (stereo not drawn),% inhibition of the pressor response induced by angiotensin I,"i.d. administration, dose 1 mg/kg",85-95%
same,% inhibition of the pressor response induced by angiotensin I,[1],95%
CCOC(=O)C(CC(=O)c1ccccc1)NC(C)C(=O)N1CC2(CCCCC2)CC1C(=O)O (stereo not drawn) [N-(1-Carboethoxy-3-oxo-3-phenylpropyl)alanyl-2-azaspiro[4.5]decane-3-carboxylic acid],% inhibition of the pressor response induced by angiotensin I,[1],95%
